Measured values as given in patent publication US10295528B2, “Method of screening ATP11C or CDC50A inhibitor” (KYOTO UNIVERSITY, priority 2014, dated 2019).
Blank lines part the entries; values can stand above or below the molecule they belong to.

Assays:
[1] = test system: ATP11C; assay: FasL-induced ATP11C cleavage in W3 cells, Western blotting with anti-mATP11C; type: cell-based, mouse; conditions: 1 h FasL, 20 μM QVD-Oph, membrane fractions
Description: FIG. 3D Cleavage of ATP11C by caspase (D). W3 and ATP11C^ED22 were incubated for 1 h with FasL in the presence or absence of 20 μM QVD-Oph. Membrane fractions were analyzed by Western blotting with anti-mATP11C or anti-mFas. Upper and middle panels: the blot with anti-mATP11C, where exposure time is longer in the middle panel.
Cells or membrane fractions were lysed in RIPA buffer ([…] (pH 8.0) containing 1% MP-40, 0.1% SDS, 0.5% sodium deoxycholate, 150 mM NaCl, and a cocktail of protease inhibitors (cOmplete, Mini, EDTA-free, Roche Diagnostics)). After removing insoluble materials by centrifugation, the lysates were mixed […] with 3×SDS sample buffer (200 mM Tris-HCl [pH 6.8], 10% SDS, 25% glycerol, 15% β-mercaptoethanol, and 0.05% bromophenol blue), and incubated at room temperature for 20 min. Proteins cere separated by SDS-PAGE using a 7.5% or 10-20% gradient gel (Bio Graft), and transferred to a PVDF membrane (Millipore). The membranes were probed with mouse anti-GFP mAb, rabbit anti-active caspase-3 mAb, rabbit anti-hATP11C Ab, rabbit anti-α-tubulin mAb, or rat anti-mFas mAb, followed by incubation with HRP-conjugated goat anti-mouse Igs, goat anti-rabbit Igs or rabbit anti-rat Igs (Dako). The peroxidase activity was detected by the Western Lightning-ECL system (PerkinElmer).

[2] = test system: ATP11C^GT; assay: Internalization of NBD lipids (flippase activity), flow cytometry; type: cell-based, human; conditions: KBM7-derived ATP11C^GT cells, 20 min with NBD-PS with or without vanadate, MFI
Description: FIG. 2D Requirement of ATP11C and CDC50A for flippase activity (D), KBM7, ATP11C^GT, and CDC50A^GT were incubated for 20 min with NBD-PS with or without an ATPase inhibitor vanadate, and analyzed by flow cytometry. MFI was plotted (n=3).
Cells (2×10^6) were incubated with 1.5 μM NBD-PS, NBD-PE, or NBD-PC at 25° C. for 15-20 min in 600 μl of HBSS containing 1 mM MgCl2 and 2.5 mM CaCl2. After incubation, the cells were collected by centrifugation, resuspended in HBSS containing 5 mg/ml fatty-acid-free BSA, and analyzed by a FACSAria II. To determine the scramblase activity, 1.5×10^6 cells were incubated at 25° C. for 4 min with 0.5 μM NBD-PC.

[3] = test system: CDC50A^ED29; assay: In vitro phagocytosis assay: thio-pMac engulfment of pHrodo-labeled cells; type: cell-based, mouse; conditions: 2 h incubation, 4 μg/ml MFG-E8 D89E
Description: FIG. 6A Engulfment of PtdSer-exposing viable cells (A). Thio-pMacs were incubated for 2 h with pHrodo-labeled W3-Ildm, CDC50A^ED29, its hCDC50A transformant (CDC50A^ED29-hCDC50A), or W3-D430G-L in the presence or absence of 4 μg/ml of MFG-E8 D89E, and analyzed by FACS.
To prepare thioglycollate-elicited peritoneal macrophages (thio-pMacs), female C57BL/6J mice at 7-12 weeks of age were injected intraperitonealiy with 60 mg of thioglycollate (Sigma-Aldrich), and peritoneal macrophages were collected 4 days later. Phagocytosis was assayed by following the transport of pHrodo-stained prey into macrophage lysosomes (50, 51). In brief, 5×10^5 thio-pMacs were grown overnight in 12-well plates (Corning). Growing or apoptotic cells (2.0×10^7) were washed with PBS and incubated with 40 ng/ml pHrodo for 10 min at room temperature. After stopping the reaction with 2 ml FCS, the cells were washed with IMDM containing 10% FCS, added to the macrophages in the medium containing 1% methyl cellulose (Sigma-Aldrich), spun at 500×g for 4 min at room temperature using a swinging rotor, and incubated at 37° C. The macrophages were detached from the plate by treatment with 0.25% trypsin, stained with APC-conjugated rat anti-mouse Mac1, suspended in 20 mM CHES-NaOH buffer (pH 9.0) containing 150 mM NaCl, 2% PCS, and 200 nM Sytox blue, and analyzed by flow cytometry using the FACSCanto II. […]

Molecule: CC(C)[C@H](NC(=O)c1ccc2ccccc2n1)C(=O)N[C@@H](CC(=O)O)C(=O)COc1c(F)cccc1F [Q-VD-OPh]
FasL-caused shift in ATP11C's mobility (from 120 to 50 kDa) [1]: prevented

incorporation of phospholipids in ATP11C^GT [2]: inhibited
Molecule: [O]=[V]([O-])([O-])[O-] [orthovanadate]

B1: D89E mutant of MFG-E8: D89E mutant of MFG-E8, which masks PtdSer; produced in HEK293T cells (protein, UniProt P21956 23-463, looked up, variant D89E)
Lactadherin: ASGDFCDSSLCLNGGTCLTGQDNDIYCLCPEGFTGLVCNETERGPCSPNPCYNDAKCLVTLDTQRGEIFTEYICQCPVGYSGIHCETETNYYNLDGEYMFTTAVPNTAVPTPAPTPDLSNNLASRCSTQLGMEGGAIADSQISASSVYMGFMGLQRWGPELARLYRTGIVNAWTASNYDSKPWIQVNLLRKMRVSGVMTQGASRAGRAEYLKTFKVAYSLDGRKFEFIQDESGGDKEFLGNLDNNSLKVNMFNPTLEAQYIKLYPVSCHRGCTLRFELLGCELHGCSEPLGLKNNTIPDSQMSASSSYKTWNLRAFGWYPHLGRLDNQGKINAWTAQSNSAKEWLQVDLGTQRQVTGIITQGARDFGHIQYVASYKVAHSDDGVQWTVYEEQGSSKVFQGNLDNNSHKKNIFEKPFMARYVRVLPVSWHNRITLRLELLGC
engulfment of CDC50A^ED29 by thio-pMacs [3]: inhibited
